Like-named read-outs stand apart in the source and are kept apart here.

As usually defined, the IC50 is the concentration needed to halve the response being measured. Broadly, the Cmax is the highest concentration seen after dosing. By Tmax is commonly meant the time at which the peak concentration occurs.

For data set [1], the system named is MCF-7/ADR cells. As to the kind of experiment: Cytotoxicity (toxic effect) of each piperazine derivative alone, SRB assay. The class given is cell-based, human. As to conditions: 2 h incubation. The protocol: The MDR human breast cancer cell line MCF-7/ADR was maintained in RPMI 1640, supplemented with 2 mM L-glutamine, 10 mM HEPES, 24 mM NaHCO3, 10% fetal bovine serum, and 1% antibiotic-antimycotic agent at 37 °C in a humidified 5% CO2 atmosphere.
The cytotoxicity of each piperazine derivative was examined in the cells using the sulforhodamine B (SRB) assay. The changes in IC50 values of DNM, P-gp substrate anticancer drug were estimated in the presence of piperazine derivatives at a concentration of 100 μM. The details of the cytotoxicity assay were described in our previous report. […] The IC50 values were calculated with the Table Curve Windows program. The assay was performed in triplicate.

The target in a further data set is human P-gp membrane (Homo sapiens, UniProt P08183). As to the kind of experiment: P-glycoprotein ATPase activity assay. Conditions: 100 μM.
A further data set deals with T1, P-gp (Homo sapiens, UniProt P08183).
T1 construct: uptake (A) and efflux (B) of [^3H]-DNM in MCF-7/ADR cells; endogenous in cells; host or cells: MCF-7/ADR
As to the kind of experiment: [3H]-DNM efflux study in P-gp overexpressing cells. The class given is cell-based. As to conditions: control: tritium-labeled DNM alone, 1 h, MCF-7/ADR cells. The protocol: Tritium-labeled P-gp substrate uptake and efflux studies were performed using the modified Harker and Sikic method. […] For the efflux study, cells were incubated with 0.05 μM tritium-labeled DNM for 1 h and subsequently in the absence or presence of 100 μM of pre-selected derivatives for another 1 h after removing 0.05 μM of the tritium-labeled DNM. The uptake and efflux values based on the radioactivity estimated by Liquid Scintillation Counting were normalized to those of 1 × 10^6 cells. The detailed procedures have been reported previously.

In data set [2] the test system is MCF-7/ADR cells. As to the kind of experiment: Cytotoxicity assay (SRB): change of DNM IC50 in the presence of piperazine derivatives. Type of data set: cell-based. As to conditions: Homo sapiens, NCI/ADR-RES, DNM alone (negative control). The procedure:
The cytotoxicity of each piperazine derivative was examined in the cells using the sulforhodamine B (SRB) assay. […] The details of the cytotoxicity assay were described in our previous report. […] The IC50 values were calculated with the Table Curve Windows program. The assay was performed in triplicate.

In another data set the test system is P-glycoprotein (P-gp). More on the design: method as in PMID 12608532. As to conditions: cited from earlier work.
On the set-up of data set [3]: method as in doi:10.1016/S0378-5173(98)00188-4. Conditions: cited from earlier work.
Data set [4] is described as follows: PTX pharmacokinetics in rats, alone or orally co-administered with compound 4. As to conditions: for AUC(0-inf): read-out: AUCinf of PTX; for k el: read-out: ke of PTX (converted); for half-life: read-out: t1/2 of PTX (converted). The class given is in vivo, Sprague-Dawley rats. The protocol: All the animal experiments were performed using six-week-old male Sprague-Dawley rats (200–235 g) under the procedures granted by the Ewha Womans University Institutional Animal Care and Use Committee (IACUC) (No. 2012-01-019), Korea.
PTX at 2 mg/mL was prepared immediately prior to use with a commercial formulation of Taxol® (Cremophor® EL, anhydrous ethanol and isotonic saline (1:1:4, v/v/v)). Compound 4 (N-(4-(4-bromophenyl)thiazol-2-yl)-2-(N-(2-(4-((4-chlorophenyl)(phenyl)methyl)piperazin-1-yl)-2-oxoethyl)acetamido)acetamide) was prepared using a process similar to PTX formulation for oral administration.
For intravenous injection of 2 mg/kg of PTX (IV) and oral administration of 25 mg/kg of PTX (PO) with 0, 2, or 5 mg/kg of compound 4, the rats were divided into 4 groups on the day. The common carotid artery was catheterized for blood sampling. Blood sampling was conducted at 0, 0.033, 0.083, 0.25, 0.5, 1, 2, 3, 4, 6, 10, and 24 h for the IV group and 0, 0.25, 0.5, 1, 2, 3, 4, 6, 8, 10, and 24 h for PO groups.
Prepared plasma samples mixed with internal standard (4-hydroxybenzoic acid n-hexyl ester) were analyzed by the HPLC system.
WinNonlin® Professional version 5.2 software (Pharsight Corporation, Mountain View, CA, USA) was used to estimate the PK parameters following intravenous or oral PTX administrations to the rats. Non-compartmental analysis was performed using the plasma PTX concentration–time profiles to obtain the following PK parameters: Area under the plasma concentration–time curve from zero time to infinity (AUCinf), elimination half-life (t1/2), apparent volume of distribution after oral administration (Vz/F), and oral clearance (Cl/F). The maximum plasma concentration (Cmax) and the time required to reach Cmax (Tmax) were directly measured from the plasma PTX concentration–time curve. The absolute BA and relative BA (AB and RB, respectively) of PTX were calculated using the respective formulas below:AB (%) = AUC po/AUC iv × IV dose/PO dose × 100 RB (%) = AUC po co–administration/AUC po control × 100

A further data set relates to MES-SA/Dx5. Set-up: method as in PMID 19275716. As to conditions: xenograft mice with MES-SA/Dx5 (P-gp overexpressed) vs parental cells; cited from earlier work.
Where [5] appears, read: PTX 25 mg/kg PO alone (oral control).
The mark [6] stands for this setting: male, Sprague-Dawley, rat, plasma, PTX 2 mg/kg IV (IV control).
[7] abbreviates: male, Sprague-Dawley, rat, plasma, PTX 25 mg/kg PO alone (oral control).

Chain of human P-gp membrane (P08183 whole entry): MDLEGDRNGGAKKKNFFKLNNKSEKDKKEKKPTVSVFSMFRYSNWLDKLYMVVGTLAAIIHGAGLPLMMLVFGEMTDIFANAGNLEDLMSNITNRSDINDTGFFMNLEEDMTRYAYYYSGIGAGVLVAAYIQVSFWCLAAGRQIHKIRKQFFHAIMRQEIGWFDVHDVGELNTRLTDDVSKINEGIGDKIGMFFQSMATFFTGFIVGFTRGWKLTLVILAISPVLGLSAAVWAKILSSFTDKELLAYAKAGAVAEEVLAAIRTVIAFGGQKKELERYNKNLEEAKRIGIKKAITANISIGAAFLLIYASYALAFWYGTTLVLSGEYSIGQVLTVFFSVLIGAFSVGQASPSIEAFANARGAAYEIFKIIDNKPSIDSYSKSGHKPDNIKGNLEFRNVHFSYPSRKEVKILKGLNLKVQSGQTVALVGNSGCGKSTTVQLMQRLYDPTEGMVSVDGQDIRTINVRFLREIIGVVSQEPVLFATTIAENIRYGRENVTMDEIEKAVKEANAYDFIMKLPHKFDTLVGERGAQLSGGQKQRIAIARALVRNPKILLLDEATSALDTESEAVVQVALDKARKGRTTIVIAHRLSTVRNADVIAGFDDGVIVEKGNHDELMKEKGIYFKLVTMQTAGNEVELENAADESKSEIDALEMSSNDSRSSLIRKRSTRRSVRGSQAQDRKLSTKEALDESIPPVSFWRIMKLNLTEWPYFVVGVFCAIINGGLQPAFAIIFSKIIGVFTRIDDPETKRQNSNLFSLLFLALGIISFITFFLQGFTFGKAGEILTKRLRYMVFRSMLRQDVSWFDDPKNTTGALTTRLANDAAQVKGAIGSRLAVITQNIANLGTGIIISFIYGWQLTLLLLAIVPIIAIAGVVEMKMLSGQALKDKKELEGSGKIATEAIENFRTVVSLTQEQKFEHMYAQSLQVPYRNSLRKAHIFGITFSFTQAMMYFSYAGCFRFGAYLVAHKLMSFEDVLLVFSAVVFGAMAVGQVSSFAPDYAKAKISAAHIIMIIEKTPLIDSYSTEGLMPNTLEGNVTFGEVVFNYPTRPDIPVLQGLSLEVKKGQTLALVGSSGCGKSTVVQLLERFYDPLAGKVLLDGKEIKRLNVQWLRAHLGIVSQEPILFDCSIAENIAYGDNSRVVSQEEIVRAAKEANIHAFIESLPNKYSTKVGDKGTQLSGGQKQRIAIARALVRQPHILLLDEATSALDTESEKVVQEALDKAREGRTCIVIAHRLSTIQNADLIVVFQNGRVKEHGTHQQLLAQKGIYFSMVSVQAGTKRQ
T1 sequence (P08183 whole entry): as above
Description for human P-gp membrane: The rate of phosphate release per mg membrane protein represented the ATPase activity by converting to the relative ratio versus control value.

Turning to `O=C(CN(CC(=O)N1CCN(C(c2ccccc2)c2ccc(Cl)cc2)CC1)C(=O)Cc1ccccc1)Nc1nc(-c2ccc(Cl)cc2)cs1` (stereo not shown) [Compound 2], the cell survival ratio stood at 102.70 in the data set on MCF-7/ADR cells [1] (5 μM); 102.87 with MCF-7/ADR cells [1] (10 μM); 86.94 in the data set with MCF-7/ADR cells [1] (25 μM); 86.10 in the data set with MCF-7/ADR cells [1] (50 μM); 87.75 in the data set on MCF-7/ADR cells [1] (100 μM). Further, the “P-gp ATPase activity compared to the control” value on human P-gp membrane worked out at 1.3 fold. Further, at human P-gp membrane, the “P-gp ATPase activity, ratio of the control (blank)” value was found to be 1.29.

On to `CC(=O)N(CC(=O)Nc1nc(-c2ccc(Br)cc2)cs1)CC(=O)N1CCN(C(c2ccccc2)c2ccc(Cl)cc2)CC1` (stereo not shown) [Compound 4, N-(4-(4-bromophenyl)thiazol-2-yl)-2-(N-(2-(4-((4-chlorophenyl)(phenyl)methyl)piperazin-1-yl)-2-oxoethyl)acetamido)acetamide], for which the cell survival ratio in the data set on MCF-7/ADR cells [1] (5 μM) is recorded as 100.76; in the data set with MCF-7/ADR cells [1] (10 μM) it was 98.50; in the data set on MCF-7/ADR cells [1] (25 μM), 96.14; with MCF-7/ADR cells [1] (50 μM), 96.90; in the data set with MCF-7/ADR cells [1] (100 μM), 87.63. The “P-gp ATPase activity compared to the control” value on human P-gp membrane is 1.2 fold. In addition, the “P-gp ATPase activity, ratio of the control (blank)” value at human P-gp membrane came out at 1.18.

Turning to `O=C(CN(CC(=O)N1CCN(C(c2ccccc2)c2ccc(Cl)cc2)CC1)C(=O)c1ccc2ccccc2c1)NCc1ccccc1` (stereo not shown) [Compound 1], the cell survival ratio came to 89.77 in the data set with MCF-7/ADR cells [1] (5 μM); 90.47 in the data set with MCF-7/ADR cells [1] (10 μM); 89.23 in the data set on MCF-7/ADR cells [1] (25 μM); 88.56 in the data set on MCF-7/ADR cells [1] (50 μM); 87.21 with MCF-7/ADR cells [1] (100 μM).

Take `CC(C)(C)c1cc(NC(=O)CN(CC(=O)N2CCN(C(c3ccccc3)c3ccc(Cl)cc3)CC2)C(=O)c2ccccc2)no1` (stereo not shown) [Compound 6]: the cell survival ratio with MCF-7/ADR cells [1] (5 μM) turned out to be 100.72; with MCF-7/ADR cells [1] (10 μM), 101.38; with MCF-7/ADR cells [1] (25 μM), 100.76; with MCF-7/ADR cells [1] (50 μM) it was 85.68; in the data set on MCF-7/ADR cells [1] (100 μM) it was 82.91.

As for `COc1ccc(CNC(=O)CN(CC(=O)N2CCN(C(c3ccccc3)c3ccc(Cl)cc3)CC2)C(=O)c2ccccc2)cc1` (stereo not shown) [Compound 5], the cell survival ratio in the data set on MCF-7/ADR cells [1] (5 μM) was determined as 101.71; in the data set on MCF-7/ADR cells [1] (10 μM), 87.22; with MCF-7/ADR cells [1] (25 μM), 83.46; with MCF-7/ADR cells [1] (50 μM) it was 83.84; in the data set on MCF-7/ADR cells [1] (100 μM), 81.94.

As for `COc1cccc2c1C(=O)c1c(O)c3c(c(O)c1C2=O)C[C@@](O)(C(C)=O)C[C@@H]3O[C@H]1C[C@H](N)[C@H](O)[C@H](C)O1` [DNM, Daunomycin], the “[3H]-DNM efflux” value on P-gp is recorded as 63.0 ± 3.3%. In addition, the IC50 with MCF-7/ADR cells [2] is 31.7 µM.

On to `CC(=O)O[C@H]1C(=O)[C@@]2(C)[C@H]([C@H](OC(=O)c3ccccc3)[C@]3(O)C[C@H](OC(=O)[C@H](O)[C@@H](NC(=O)c4ccccc4)c4ccccc4)C(C)=C1C3(C)C)[C@]1(OC(C)=O)CO[C@@H]1C[C@@H]2O` [PTX, Paclitaxel], for which the “share of orally administered PTX excluded from the GI track by P-gp” value with P-glycoprotein (P-gp) is on record as “approximately 50%”. The “bioavailability of PTX” value in data set [3] is “below 10%”. Also, in data set [4] (PTX 2 mg/kg IV (IV control)), the “AB (absolute BA) of PTX” value is 100.0%, the “Cl/F of PTX” value was determined as 614 ± 123 mL/h and the “Vz/F of PTX” value was found to be 1754 ± 419 mL. For the same compound, in data set [4] (setting [5]), the “AB (absolute BA) of PTX” value was 7.1% and the “Cl/F of PTX” value is reported as 8721 ± 2040 mL/h. In data set [4] (setting [6]), the Cmax worked out at 2970 ± 428 ng/mL, the AUC(0-inf) was determined as 835 ± 155 ng·h/mL, the k el was 0.000103 s⁻¹ and the half-life was 124 ± 48 min. Besides, in data set [4] (setting [7]), the Cmax turned out to be 189 ± 76 ng/mL, the Tmax was 2 h, the AUC(0-inf) worked out at 745 ± 208 ng·h/mL and the k el is 6.47e-05 s⁻¹. In addition, the half-life in data set [4] (setting [7]) is 186 ± 48 min. In addition, the Vd/F in data set [4] (male, Sprague-Dawley, rat, plasma, PTX 25 mg/kg PO alone (oral control), read-out: Vz/F of PTX) was determined as 40.6 L.

Consider `O=C(C(c1ccccc1)c1ccc([125I])cc1)N1CCN(CC(O)COc2cccc3ncccc23)CC1` (stereo not shown) [radio-iodinated piperazine derivative, 5-[3-{4-(2-phenyl-2-(4-[125I]iodo-phenyl)acetyl)piperazin-1-yl}-2-hydroxypropoxy] quinoline], for which, in the data set on MES-SA/Dx5, the “shortening of absorption half-life” value is approximately 10 fold and the “shortening of mean residence time” value was 50%.

With `O=C(CN(CC(=O)N1CCN(C(c2ccccc2)c2ccc(Cl)cc2)CC1)C(=O)c1ccc2ccccc2c1)Nc1nc(-c2ccc(Cl)cc2)cs1` (stereo not shown) [Compound 3], the cell survival ratio with MCF-7/ADR cells [1] (5 μM) is on record as 102.03; in the data set with MCF-7/ADR cells [1] (10 μM), 101.69; with MCF-7/ADR cells [1] (25 μM) it was 102.24; in the data set on MCF-7/ADR cells [1] (50 μM) it was 86.26; with MCF-7/ADR cells [1] (100 μM), 85.90.

These data come from PMC6359037, “Effects of Piperazine Derivative on Paclitaxel Pharmacokinetics” (Pharmaceutics, 2019).
